Source: patent US20160354427A1, “METHODS FOR INDUCING EPITHELIAL CANCER CELL SENESCENCE” (Institute for Cancer Research d/b/a The Research Institute …, priority 2011, published 2016)

Assays:
[1] = system: Wnt5a mRNA in PEO1 cells; assay: Wnt5a mRNA expression by qRT-PCR after Aza-C treatment; assay type: cell-based, human; conditions: 5 μmol/L Aza-C for 4 days, vs control
Description: (§1) FIGS. 2A-2C show promoter DNA CpG island hypermethylation contributes to Wnt5a downregulation in human EOC cells. […] Locations of exon 1 (open rectangle), CpG sites (vertical lines) and coding exons (filled rectangle), and the transcription start site (curved arrow) are indicated. Flat arrows indicate the positions of primers used for PCR amplification, and the size of PCR product is also indicated. […] Mean of 3 independent experiments with SD.
(§2) RT-PCR, qRT-PCR and immunoblotting. RNA from cultured primary HOSE or human EOC cells was isolated using Trizol (Invitrogen) according to manufacture's instruction. For qRT-PCR, Trizol®—(Molecular Research Center, Inc., Cincinnati, Ohio) isolated RNA was further purified using a RNeasy® mini kit (Qiagen GmbH, Germany). The Wnt5a primers used for qRT-PCR were purchased from Applied Biosystems. Housekeeping β-2-microglobulin or β-actin mRNA expression was used to normalize the Wnt5a mRNA expression. Soluble β-catenin was extracted using a buffer that consisting of 10 mM pH 7.5 Tris-HCl, 0.05% NP-40, 10 mM NaCl, 3 mM MgCl2, 1 mM EDTA and proteinase inhibitors (Roche). The following antibodies were used for immunoblotting: goat anti-Wnt5a (R&D systems), mouse anti-GAPDH (Millipore/Chemicon), mouse anti-β-catenin (BD Bioscience), anti-p53, mouse anti-Rb and mouse anti-β-actin (Sigma Chemical Co.), and rabbit anti-pRBpS780 (Cell Signaling).

[2] = system: Wnt5a protein in PEO1 cells; assay: Wnt5a protein expression by immunoblotting after Aza-C treatment; assay type: cell-based, human; conditions: 5 μmol/L Aza-C for 4 days, vs control
Description: as §1, §2

Nc1ncn([C@@H]2O[C@H](CO)[C@@H](O)[C@H]2O)c(=O)n1 [Aza-C, 5-Aza-cytadine]
levels of Wnt5a mRNA [1]: significant increase
levels of Wnt5a protein [2]: significant increase
